Data as given in patent US8658648B2, “Modified chloroquines with single ring moiety or fused ring moiety” (DesignMedix, Inc., priority 2008, dated 2014).
Like-named read-outs stand apart in the source and are kept apart here.

Tests used:
[1] = tested on: Dd2 (CQ^R) P. falciparum strain; test: In vitro fluorescence (Sybr Green I) assay for IC50 against Dd2 strain; assay type: cell-based; details: Plasmodium falciparum, read-out: IC50-Dd2
Description: (§1) This method employs fluorescent detection of the level of parasitemia in cultured red blood cells and can be automated for high-throughput screening of antimalarial RCQs. This exemplary method allows the inhibitory agent (such as a MCQ) to be in contact with the parasite for an entire developmental cycle without purine starvation, which is in contrast to the traditional ^3H-hypoxanthine method (Desjardins et al. 1979. Antimicrob. Agents Chemother. 16(6):710-718, which is incorporated herein by reference in its entirety). Briefly, to perform the Smilkstein et al. method, an initial parasitemia of approximately 0.2% is attained by adding uninfected red blood cells (RBCs) to a stock culture of Plasmodium-infected RBCs. […] After a period of incubation (such as about 72 hours), a sufficient amount (e.g., 100 μL) of a fluorescent DNA binding dye-detergent mixture (e.g., Sybr Green I dye-detergent mixture) to lyse cells and bind to DNA is added to the reactions. Because uninfected RBCs have no DNA, only parasite DNA (in infected RBCs) is available for binding to the fluorescent dye (e.g., Sybr Green I). Samples are then incubated in the dark for a period of time (e.g., one hour), followed by measurement of levels of fluorescence. For Sybr Green 1, excitation and emission wavelength are 485 and 530 nm, respectively. Fluorescence readings, which represent the amount of parasite DNA in the sample, can be plotted against the Log [drug] and fit to a curve by nonlinear regression to obtain the IC50 value for the tested compound.
(§2) An in vitro fluorescence assay for determining IC50 of antimalarial drugs was performed as previously described by Smilkstein et al. (2004. Antimicrob. Agents Chemother. 48(5):1803-1806). This procedure can be automated for high-throughput screening of the antimalarial activities of RCQs described herein. This method also allows the tested agent (e.g., a MCQ) to be in contact with the parasite for an entire developmental cycle without purine starvation (which occurs with the commonly used ^3H-hypoxanthine method; see, e.g., Desjardins et al. 1979. Antimicrob. Agents Chemother. 16, (6):710-7188).
(§3) Briefly, an initial parasitemia of approximately 0.2% was attained by addition of uninfected red blood cells to a stock culture of cells infected with Dd2 (CQ^R), 7G8 (CQ^R), or D6 (CQ^S) P. falciparum strains. A 10 mM solution of a test compound (in DMSO) was prepared. The test compound (at a final concentration from 10^−11 to 10^−4 M) and infected red blood cells (at a final concentration of 2% (v/v)) were mixed in 100 μL samples in individual wells of a 96-well plate. Each sample was prepared in triplicate. A triplicate set of reactions containing CQ (instead of the test compound) was included as a control. After a 72 hour incubation period, Sybr Green I dye-detergent mixture (100 μL) was added to each reaction. The samples were further incubated for an hour in the dark, and then placed in a 96-well fluorescence plate reader (Gemini-EM, […]) and analyzed with excitation and emission wavelength bands at 485 and 530 nm, respectively. Fluorescence readings were plotted against the Log [drug], and curve fitting performed by nonlinear regression to find the IC50 value.

[2] = tested on: D6 (CQ^S) P. falciparum strain; test: In vitro fluorescence (Sybr Green I) assay for IC50 against D6 strain; assay type: cell-based; details: Plasmodium falciparum, read-out: IC50-D6
Description: as §1, §2, §3

[3] = tested on: mitogen-induced marine spleen lymphocytes; assay type: cell-based; details: LC50; mouse spleen lymphocytes, 72 hours incubation, then resazurin 24 hours
Protocol: Mouse spleen lymphocytes were isolated from C57B1/6J mice by teasing tissues on a metallic sieve screen. […] Two hundred (200) μl isolated cells were then seeded in separate wells of a 96-well flat-bottom tissue culture plate at a density of 2×10^5 cells per well. […] After 72 hours incubation in a humidified atmosphere at 37° C. and 5% CO2, a solution of resazurin PBS was added to a final concentration 10 μM, and the plates were returned to the incubator for another 24 hours. Resazurin is a substrate which changes color in response to metabolic activity (such as that found in living cells). […] LC50 values were determined from plots of florescence versus drug concentration using non-linear regression by Prism software.

P. berghei = test: In vivo activity in mice against P. berghei (survival); details: second 4× oral dose experiment, dosage equimolar to 30 mg/kg CQ; monitored up to 30 days
[4] = tested on: 7G8 (CQ^R) P. falciparum strain; test: In vitro fluorescence (Sybr Green I) assay for IC50 against 7G8 strain; assay type: cell-based; details: Plasmodium falciparum, read-out: IC50-7G8
Description: as §1, §2, §3

[5] = tested on: P. falciparum strain TM91C235; details: cited from earlier work; note: key: S = sensitive; R = resistant; S/R = intermediate level of resistance
P. falciparum strain 3D7 = details: cited from earlier work
P. falciparum strain 7G8 = details: cited from earlier work
P. falciparum strain Dd2 = details: cited from earlier work
[6] = tested on: P. falciparum strain FCR3; details: cited from earlier work; note: key: S = sensitive; R = resistant; S/R = intermediate level of resistance
P. falciparum strain W2 = details: cited from earlier work
P. falciparum strain D6 = details: cited from earlier work
Throughout, for Drug susceptibility of P. falciparum strain 3D7: key: S = sensitive; R = resistant; S/R = intermediate level of resistance.
Throughout, for Drug susceptibility of P. falciparum strain 7G8: key: S = sensitive; R = resistant; S/R = intermediate level of resistance.
Throughout, for Drug susceptibility of P. falciparum strain Dd2: key: S = sensitive; R = resistant; S/R = intermediate level of resistance.

## Clc1ccc2c(NCCCN3CCN(c4ccccn4)CC3)ccnc2c1 [7-chloro-N-(3-(4-(pyridin-2-yl)piperazin-1-yl)propyl)quinolin-4-amine]
[1]; Erythrocyte, Dd2 (CQ^R) strain in infected red blood cells, 72 hour incubation
  IC50: 4.8 nM
[2]; Erythrocyte, D6 (CQ^S) strain in infected red blood cells, 72 hour incubation
  IC50: 2.7 nM
[3]
  Cytotoxicity: 8.6 µM
P. berghei
  average survival for the mice: 20 days
[4]; Erythrocyte, 7G8 (CQ^R) strain in infected red blood cells, 72 hour incubation
  IC50: 9.5 nM

## CCN(CC)CCCC(C)Nc1ccnc2cc(Cl)ccc12 (stereo not shown) [Chloroquine, chloroquine]
[1]; DD2, Erythrocyte, 72 h
  IC50: 102 nM
[5]
  Drug susceptibility of P. falciparum strain TM91C235: R
[2]; D6, Erythrocyte, 72 h
  IC50: 6.9 nM
P. falciparum strain 3D7
  Drug susceptibility of P. falciparum strain 3D7: S
P. falciparum strain 7G8
  Drug susceptibility of P. falciparum strain 7G8: R
P. falciparum strain Dd2
  Drug susceptibility of P. falciparum strain Dd2: R
[6]
  Drug susceptibility of P. falciparum strain FCR3: R
P. falciparum strain W2
  Drug susceptibility of P. falciparum strain W2: R
P. falciparum strain D6
  Drug susceptibility of P. falciparum strain D6: S
[4]; 7G8, Erythrocyte, 72 h
  IC50: 106 nM

## C=C[C@H]1C[N@@]2CC[C@H]1C[C@H]2[C@H](O)c1ccnc2ccc(OC)cc12 [Quinine]
[5]
  Drug susceptibility of P. falciparum strain TM91C235: R
P. falciparum strain Dd2
  Drug susceptibility of P. falciparum strain Dd2: R
[6]
  Drug susceptibility of P. falciparum strain FCR3: S
P. falciparum strain W2
  Drug susceptibility of P. falciparum strain W2: R
P. falciparum strain D6
  Drug susceptibility of P. falciparum strain D6: S

## COc1ncnc(NS(=O)(=O)c2ccc(N)cc2)c1OC [Sulfadoxine]
[5]
  Drug susceptibility of P. falciparum strain TM91C235: R
P. falciparum strain Dd2
  Drug susceptibility of P. falciparum strain Dd2: S
[6]
  Drug susceptibility of P. falciparum strain FCR3: S
P. falciparum strain W2
  Drug susceptibility of P. falciparum strain W2: R
P. falciparum strain D6
  Drug susceptibility of P. falciparum strain D6: S
